Patent publication US11696956B2, “Bicyclic peptide ligands specific for EphA2” (BicycleTx Limited, priority 2017, dated 2023)

Legend:
Mouse EphA2 = molecular target: T1, Mouse EphA2 (Mus musculus, UniProt Q03145); assay: FP competition binding (Study 2, alternative protocol); conditions: summary of Table 10
T1 construct: EphA2 (Ecto); Mouse; C-; Sino; 50586-M08H; polyHis (C); purchased Sino Biological 50586-M08H

Human EphA2 = molecular target: T2, Human EphA2 (Homo sapiens, UniProt P29317); assay: as above; conditions: summary of Table 10
T2 construct: EphA2 (Ecto); Human; C-terminal; R&D systems; 3035-A2; polyHis (C); purchased R&D systems 3035-A2

PC-3 xenograft = assay: Study 8: in vivo efficacy, PC-3 xenograft; conditions: qw
Experimental: The major endpoint was to see if the tumor growth could be delayed or mice could be cured. Tumor volume was measured three times weekly in two dimensions using a caliper, and the volume was expressed in mm^3 using the formula: V=0.5 a×b^2 where a and b are the long and short diameters of the tumor, respectively. The tumor size was then used for calculations of T/C value. The T/C value (in percent) is an indication of antitumor effectiveness; T and C are the mean volumes of the treated and control groups, respectively, on a given day. TGI was calculated for each group using the formula: TGI (%)=[1−(Ti−T0)/(Vi−V0)]×100; Ti is the average tumor volume of a treatment group on a given day, T0 is the average tumor volume of the treatment group on the day of treatment start, Vi is the average tumor volume of the vehicle control group on the same day with Ti, and V0 is the average tumor volume of the vehicle group on the day of treatment start.
A one-way ANOVA was performed to compare tumor volume among groups, and when a significant F-statistics (a ratio of treatment variance to the error variance) was obtained, comparisons between groups were carried out with Games-Howell test. […] P<0.05 was considered to be statistically significant.
The tumor cells were maintained in F-12K medium supplemented with 10% heat inactivated fetal bovine serum at 37° C. in an atmosphere of 5% CO2 in air. The tumor cells were routinely subcultured twice weekly. The cells growing in an exponential growth phase were harvested and counted for tumor inoculation.
52 animals were randomized when the average tumor volume reached 454 mm^3.
Tumor growth inhibition rate for test articles in the PC-3 xenograft model was calculated based on tumor volume measurements at day 20 after the start of the treatment.

rat EphA2 = molecular target: T3, rat EphA2 (Rattus norvegicus, UniProt D3ZBN3); assay: FP competition binding (Study 2, alternative protocol); conditions: summary of Table 10
T3 construct: Rat; C-; In-house; N/A; polyHis (C); made in house
T3 sequence (D3ZBN3 26-205): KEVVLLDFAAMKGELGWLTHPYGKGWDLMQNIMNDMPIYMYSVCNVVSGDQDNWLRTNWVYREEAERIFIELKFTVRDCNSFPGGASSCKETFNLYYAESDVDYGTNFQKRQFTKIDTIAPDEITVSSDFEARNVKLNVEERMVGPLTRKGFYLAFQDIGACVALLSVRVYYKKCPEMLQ

T1 sequence (Q03145 26-538 limits assumed): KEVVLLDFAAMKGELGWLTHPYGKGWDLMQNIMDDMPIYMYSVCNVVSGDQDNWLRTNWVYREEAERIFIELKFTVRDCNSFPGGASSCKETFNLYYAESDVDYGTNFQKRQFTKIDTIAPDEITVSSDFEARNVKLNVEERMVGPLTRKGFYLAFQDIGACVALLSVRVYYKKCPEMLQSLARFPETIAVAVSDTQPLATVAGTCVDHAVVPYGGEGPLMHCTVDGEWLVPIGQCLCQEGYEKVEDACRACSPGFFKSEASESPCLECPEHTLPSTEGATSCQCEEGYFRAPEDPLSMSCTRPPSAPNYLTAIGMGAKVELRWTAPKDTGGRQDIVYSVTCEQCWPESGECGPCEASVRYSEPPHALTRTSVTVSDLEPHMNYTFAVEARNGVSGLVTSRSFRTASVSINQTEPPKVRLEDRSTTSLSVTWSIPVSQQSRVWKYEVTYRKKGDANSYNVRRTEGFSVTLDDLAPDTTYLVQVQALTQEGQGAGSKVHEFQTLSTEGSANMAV
T2 sequence (P29317 24-537 limits assumed): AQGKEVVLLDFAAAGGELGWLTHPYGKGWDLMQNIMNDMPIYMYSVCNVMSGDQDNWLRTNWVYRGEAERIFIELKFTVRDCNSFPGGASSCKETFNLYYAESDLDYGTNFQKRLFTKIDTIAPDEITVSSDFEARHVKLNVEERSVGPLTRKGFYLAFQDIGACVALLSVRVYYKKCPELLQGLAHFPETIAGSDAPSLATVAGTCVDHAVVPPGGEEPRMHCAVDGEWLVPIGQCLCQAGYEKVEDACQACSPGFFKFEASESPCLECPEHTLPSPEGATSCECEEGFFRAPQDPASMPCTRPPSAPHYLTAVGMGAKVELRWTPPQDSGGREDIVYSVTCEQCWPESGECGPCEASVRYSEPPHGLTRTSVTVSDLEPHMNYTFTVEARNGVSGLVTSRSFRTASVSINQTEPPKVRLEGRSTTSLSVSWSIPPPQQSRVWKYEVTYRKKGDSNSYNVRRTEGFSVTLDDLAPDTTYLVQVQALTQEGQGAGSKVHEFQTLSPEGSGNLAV

Ac-CPLVNPLCLHPGVVTCLHG-Sar6-(D-K) [Compound 77]
binding to mouse EphA2 (Mouse EphA2): binds | binding to human EphA2 (Human EphA2): binds

CC(=O)O[C@@]12CO[C@@H]1C[C@H](O)[C@@]1(C)C(=O)[C@H](O)C3=C(C)[C@@H](OC(=O)[C@H](O)[C@@H](NC(=O)OC(C)(C)C)c4ccccc4)C[C@@](O)([C@@H](OC(=O)c4ccccc4)[C@H]21)C3(C)C [Docetaxel]
animal body weight loss (PC-3 xenograft; 15 mg/kg): severe animal body weight loss | TGI (PC-3 xenograft; 15 mg/kg, day 20): 101.8% | TV (tumor volume) (PC-3 xenograft; 15 mg/kg, day 20): 419 mm^3 | Mean tumor volume (PC-3 xenograft; 15 mpk, day 0): 453 ± 62 mm^3 | Mean tumor volume (PC-3 xenograft; 15 mpk, day 2): 584 ± 72 mm^3 | Mean tumor volume (PC-3 xenograft; 15 mpk, day 4): 632 ± 56 mm^3 | Mean tumor volume (PC-3 xenograft; 15 mpk, day 6): 636 ± 48 mm^3 | Mean tumor volume (PC-3 xenograft; 15 mpk, day 8): 568 ± 50 mm^3 | Mean tumor volume (PC-3 xenograft; 15 mpk, day 10): 408 ± 31 mm^3 | Mean tumor volume (PC-3 xenograft; 15 mpk, day 13): 374 ± 26 mm^3 | Mean tumor volume (PC-3 xenograft; 15 mpk, day 15): 388 ± 36 mm^3 | Mean tumor volume (PC-3 xenograft; 15 mpk, day 17): 361 ± 25 mm^3 | Mean tumor volume (PC-3 xenograft; 15 mpk, day 20): 419 ± 31 mm^3 | T/C (PC-3 xenograft; 15 mpk, day 20): 17.7% | TGI (PC-3 xenograft; 15 mpk, day 20): 101.8% | Tumor Volume (PC-3 xenograft; 15 mpk, day 20, Mean ± SEM): 419 ± 31 mm^3

(β-Ala)-Sar10-A(HArg)DC(HyP)LVNPLCLHP(D-Asp)W(HArg)C [Compound 66]
binding to mouse EphA2 (Mouse EphA2): bind with high affinity | binding to rat EphA2 (rat EphA2): bind with high affinity

(β-Ala)-Sar10-A(HArg)DCPLVNPLCLHPGVVTC [Compound 67]
binding to mouse EphA2 (Mouse EphA2): bind with high affinity | binding to rat EphA2 (rat EphA2): bind with high affinity
